From ChEMBL document CHEMBL1151904, “Computer-aided rational molecular design of argifin-derivatives with increased inhibitory activity against chitinase B from Serratia marcescens” (Bioorg Med Chem Lett, 2009)

Each compound was assayed against T1, Chitinase B (Serratia marcescens, UniProt P11797) (assay: Inhibition of Serratia marcescens chitinase B).
T1 sequence (P11797 whole entry): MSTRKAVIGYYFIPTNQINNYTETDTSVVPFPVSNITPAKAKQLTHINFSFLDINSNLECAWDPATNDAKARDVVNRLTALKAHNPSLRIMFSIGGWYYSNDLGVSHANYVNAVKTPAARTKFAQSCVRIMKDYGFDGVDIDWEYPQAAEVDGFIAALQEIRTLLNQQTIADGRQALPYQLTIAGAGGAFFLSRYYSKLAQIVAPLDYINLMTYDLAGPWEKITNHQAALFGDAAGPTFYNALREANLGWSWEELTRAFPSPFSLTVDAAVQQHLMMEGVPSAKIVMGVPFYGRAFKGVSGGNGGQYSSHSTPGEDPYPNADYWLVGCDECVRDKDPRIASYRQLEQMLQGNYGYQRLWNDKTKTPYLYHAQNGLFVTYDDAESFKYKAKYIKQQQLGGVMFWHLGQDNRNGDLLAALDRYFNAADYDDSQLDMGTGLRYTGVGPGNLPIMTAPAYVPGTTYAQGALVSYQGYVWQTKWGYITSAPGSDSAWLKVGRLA

**Q.** CNC(=O)NC(N)=NCCC[C@@H]1NC(=O)[C@@H](C)NC(=O)C[C@@H](C(=O)N2CCC(Cc3ccccc3)CC2)NC(=O)C[C@@H](C(=O)O)NC(=O)[C@H](Cc2ccccc2)N(C)C1=O was tested. Which IC50 did it give?
**A.** Its IC50 is 1.3 µM.

**Q.** CNC(=O)NC(N)=NCCC[C@@H]1NC(=O)[C@@H](Cc2ccccc2)NC(=O)C[C@@H](C(=O)O)NC(=O)C[C@@H](C(=O)O)NC(=O)[C@H](Cc2ccccc2)N(C)C1=O was tested. Which IC50 did it give?
**A.** The IC50 was 9.9 µM.

**Q.** For CNC(=O)NC(=N)NCCC[C@@H]1NC(=O)[C@@H](Cc2c[nH]c3ccccc23)NC(=O)C[C@@H](C(=O)O)NC(=O)C[C@@H](C(=O)O)NC(=O)[C@H](Cc2ccccc2)N(C)C1=O, which IC50 is on record?
**A.** The IC50 was 4.5 µM.

**Q.** CNC(=O)NC(N)=NCCC[C@@H]1NC(=O)[C@@H](CC(C)C)NC(=O)C[C@@H](C(=O)O)NC(=O)C[C@@H](C(=O)O)NC(=O)[C@H](Cc2ccccc2)N(C)C1=O was tested. Which IC50 did it give?
**A.** The IC50 was 1.9 µM.

**Q.** For CNC(=O)NC(=N)NCCC[C@@H]1NC(=O)[C@@H](CCSC)NC(=O)C[C@@H](C(=O)O)NC(=O)C[C@@H](C(=O)O)NC(=O)[C@H](Cc2ccccc2)N(C)C1=O, which IC50 is on record?
**A.** Its IC50 is 10 µM.

**Q.** With CNC(=O)NC(N)=NCCC[C@@H]1NC(=O)[C@@H](C(C)C)NC(=O)C[C@@H](C(=O)O)NC(=O)C[C@@H](C(=O)O)NC(=O)[C@H](Cc2ccccc2)N(C)C1=O as the compound, how does the IC50 read?
**A.** Its IC50 is 6.1 µM.

**Q.** With CNC(=O)NC(N)=NCCC[C@@H]1NC(=O)[C@@H](CC(C)C)NC(=O)C[C@@H](C(=O)N2CCC(Cc3ccccc3)CC2)NC(=O)C[C@@H](C(=O)O)NC(=O)[C@H](Cc2ccccc2)N(C)C1=O as the compound, how does the IC50 read?
**A.** Its IC50 is 0.23 µM.
